Drawing on patent publication US9440969B2, “Compounds and methods for kinase modulation, and indications therefor” (PLEXXIKON INC., priority 2009, dated 2016), this text covers IC50 for 15 compounds.

Test [1] relates to A375 melanoma (B-Raf V600E mutation). As to the kind of experiment: A375 cell growth inhibition (ATPlite luminescence). In kind it is cell-based. The conditions noted are these: Homo sapiens, A-375, 72 h, A375 cells, incubated 3 days with compound. The procedure:
Compounds are assessed in a variety of cell based assays. For example human cell lines with B-Raf V600E mutation (A375 melanoma, SKMEL3 melanoma, and COLO205 colon adenocarcinoma), as well as tumorigenic cell lines with wild-type B-RAF (SW620 colon adenocarcinoma) or with Ras mutations (SKMEL2 melanoma and IPC298 melanoma). Similar assays may be used to assess additional tumorigenic cell lines with Ras mutations, including, but not limited to, M202, M207, M243, M244, M296, S117, HCT116, HCT15, DLD1, MiaPaCa, A549, NCI-H23, NCI-H460, HOP62, MDA-MB231, Hs-578T, HL60, MOLT-4, and CCRF-CEM.
On day 1, cells are counted, then centrifuged in a conical tube for 5 minutes at 1000 rpm. The supernatant is removed and cells are re-suspended as follows: • SW620 (ATCC catalog #CCL-27): resuspend in Leibovitz's L-15 medium, 2 mM L-glutamine, 10% fetal bovine serum to 6×10^4 cells/mL. • A375 (ATCC catalog #CRL-1619): resuspend in Dulbecco's modified Eagle's medium, 4 mM L-glutamine, 4.5 g/L D-glucose, 10% fetal bovine serum to 6×10^4 cells/mL. • COLO205 (ATCC catalog #CCL-222): resuspend in RPMI 1640, 2 mM L-glutamine, 1.5 g/L sodium bicarbonate, 4.5 g/L D-glucose, 10 mM HEPES, 1.0 mM sodium pyruvate, 10% fetal bovine serum to 6×10^4 cells/mL. • SKMEL2 (ATCC catalog #HTB-68): resuspend in Minimum Eagle essential medium, 2 mM L-glutamine, 1.5 g/L sodium bicarbonate, 0.1 mM non-essential amino acids, 1.0 mM sodium pyruvate, 10% fetal bovine serum to 6×10^4 cells/mL. • SKMEL3 (ATCC catalog #HTB-69): resuspend in McCoy's 5A medium, 1.5 mM L-glutamine, 15% fetal bovine serum to 6×10^4 cells/mL. • IPC298 (DSMZ catalog #ACC 251): resuspend in RPMI 1640, 2 mM L-glutamine, 10% fetal bovine serum to 6×10^4 cells/mL.
The cells are plated, 50 μL in each well of a 96-well dish (Corning 3610) and incubated at 37° C. in 5% CO2 overnight, cells plated to a final concentration of cells as follows:
On day 2, compound at a maximum concentration of 5 mM is serially diluted 1:3 (e.g. 10 μL with 30 μL dimethyl sulfoxide) for a total of 8 point titration with DMSO as a control. A 1 μL aliquot of each dilution point and control is added to 249 μL growth media and 50 μL is added to a well containing cells, providing 10 μM compound at the maximum concentration point. The cells are incubated for 3 days at 37° C. in 5% CO2.
On day 5, ATPlite 1 step Luminescence Assay System (Perkin Elmer #6016739) is brought to room temperature along with the cell cultures. ATPlite is added 25 μL to each well, shake for 2 minutes, and the cells are incubated at room temperature for 10 minutes, then luminescence is read on Safire reader. The measured luminescence correlates directly with cell number, such that the reading as a function of compound concentration is used to determine the IC50 value.
It is understood that the results of these assays may vary as assay conditions are varied. Inhibition levels determined under the conditions described herein represent a relative activity for the compounds tested under the specific conditions employed. The cell based assays are likely to show variability due to the complexity of the system and the sensitivity thereof to any changes in the assay conditions. […] Results for compounds that are tested and show substantially no inhibition below the highest tested concentration are represented as “-” in the tables below. In some instances, the compounds were not tested in all of the assays, or assay results were not valid, as indicated by NA in the tables below.
A general note: ATP-based viability assays read luminescence as a measure of living cells.

The next test deals with CYP3A4(BQ) (Homo sapiens, UniProt P08684). Description: CYP3A4 inhibition (substrate BQ). The class given is in vitro ADME. The conditions noted are these: read-out: Cyp IC50 (μM) 3A4(BQ). On the procedure: CYP (Cytochrome P450) enzymes are the major drug metabolizing enzymes present in the liver. The inhibition of CYP enzyme activity (IC50) for each of CYP1A2, CYP2C19, CYP2C9, CYP2D6, CYP3A4(BFC) and CYP3A4(BQ) is determined for compounds, where inhibition of metabolism of a known substrate leads to a decrease in the fluorescence of the metabolized product. The fluorescence of the product is monitored as a function of compound concentration. Compounds are dissolved in dimethyl sulfoxide to a concentration of 100 mM. These are diluted […], into 82 μL of acetonitrile. An 11 μL aliquot of this solution is then added to 204 μL of cofactor mix (1.3% NADPH Regeneration system Solution A, 1.04% NADPH Regeneration system Solution B from BD Biosciences, 5% acetonitrile and 0.05% dimethyl sulfoxide). These are then serially diluted 1:1 (160 μL to 160 μL co-factor mix) for a total of 10 points. A 10 μL aliquot of this final mixture is dispensed into 384 well assay plates and incubated for 10 minutes at 37° C. Enzyme and substrate mix (10 μL; 0.5 pmol CYP1A2/5 μM CEC; 1.0 pmol CYP2C9/75 μM MFC; 0.5 pmol CYP2C19/25 μM CEC; 1.5 pmol CYP2D6/1.5 μM AMMC; 1.0 pmol CYP3A4/50 μM BFC; or 1.0 pmol CYP3A4/40 μM BQ) is added to these assay plates. Assay plates are incubated at 37° C. (CYP1A2-15 min; CYP2C9-45 min; CYP2C19, 2D6 and 3A4-30 min) and read in a Tecan Safire 2 plate reader (CYP1A2, 2C19 and 3A4 409 ex/460 em; CYP2C9 and 2D6 409 ex/530 em). The signal versus compound concentration is used to determine the IC50. The enzymes and substrates for this assay are obtained from BD Biosciences.
Sequence of CYP3A4(BQ) (P08684 whole entry): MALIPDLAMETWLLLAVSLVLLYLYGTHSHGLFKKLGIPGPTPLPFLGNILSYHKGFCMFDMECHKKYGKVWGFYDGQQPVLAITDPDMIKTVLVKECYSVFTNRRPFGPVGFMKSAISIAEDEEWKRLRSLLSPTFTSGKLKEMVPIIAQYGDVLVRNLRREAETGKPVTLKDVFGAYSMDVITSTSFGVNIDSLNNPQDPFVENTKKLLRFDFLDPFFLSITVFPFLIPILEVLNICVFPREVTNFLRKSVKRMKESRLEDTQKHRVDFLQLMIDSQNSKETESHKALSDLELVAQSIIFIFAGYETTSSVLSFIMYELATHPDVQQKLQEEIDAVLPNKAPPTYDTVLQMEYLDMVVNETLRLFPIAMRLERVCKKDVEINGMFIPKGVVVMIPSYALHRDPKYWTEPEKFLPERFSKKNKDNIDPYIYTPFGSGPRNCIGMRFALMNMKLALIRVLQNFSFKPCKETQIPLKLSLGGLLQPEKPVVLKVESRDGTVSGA

With `CCCS(=O)(=O)Nc1ccc(F)c(C(=O)c2c[nH]c3ncc(-c4ccc5[nH]ncc5c4)cc23)c1F` [P-0001, propane-1-sulfonic acid {2,4-difluoro-3-[5-(1H-indazol-5-yl)-1H-pyrrolo[2,3-b]pyridine-3-carbonyl]-phenyl}-amide], the 50% inhibitory concentration (IC50) in test [1] was < 1 µM.
In the case of `CNC(=O)n1ncc2cc(-c3cnc4[nH]cc(C(=O)c5c(F)ccc(NS(=O)(=O)c6cc(F)ccc6F)c5F)c4c3)ccc21` [P-0003, 5-{3-[3-(2,5-Difluoro-benzenesulfonylamino)-2,6-difluoro-benzoyl]-1H-pyrrolo[2,3-b]pyridin-5-yl}-indazole-1-carboxylic acid methylamide], in test [1], the IC50 was < 1 µM.
With `CCCS(=O)(=O)Nc1ccc(F)c(C(=O)c2c[nH]c3ncc(-c4ccc5c(cnn5C(C)=O)c4)cc23)c1F` [P-0007, propane-1-sulfonic acid {3-[5-(1-acetyl-1H-indazol-5-yl)-1H-pyrrolo[2,3-b]pyridine-3-carbonyl]-2,4-difluoro-phenyl}-amide], the IC50 in test [1] was > 1 µM.
As to `CCCS(=O)(=O)Nc1ccc(F)c(C(=O)c2c[nH]c3ncc(-c4ccc5nn(C)cc5c4)cc23)c1F` [P-0010, Propane-1-sulfonic acid {2,4-difluoro-3-[5-(2-methyl-2H-indazol-5-yl)-1H-pyrrolo[2,3-b]pyridine-3-carbonyl]-phenyl}-amide], the IC50 in test [1] is < 1 µM; at CYP3A4(BQ), > 10 µM.
`CCCS(=O)(=O)Nc1ccc(F)c(C(=O)c2c[nH]c3ncc(-c4ccc5cn(C)nc5c4)cc23)c1F` [P-0011, Propane-1-sulfonic acid {2,4-difluoro-3-[5-(2-methyl-2H-indazol-6-yl)-1H-pyrrolo[2,3-b]pyridine-3-carbonyl]-phenyl}-amide]: the IC50 in test [1] was < 1 µM; at CYP3A4(BQ) it was > 10 µM.
The corresponding values for `CCCS(=O)(=O)Nc1ccc(F)c(C(=O)c2c[nH]c3ncc(-c4ccc5[nH]ccc5c4)cc23)c1F` [P-0012, Propane-1-sulfonic acid {2,4-difluoro-3-[5-(1H-indol-5-yl)-1H-pyrrolo[2,3-b]pyridine-3-carbonyl]-phenyl}-amide] are < 1 µM and > 10 µM.
Take `CCCS(=O)(=O)Nc1ccc(F)c(C(=O)c2c[nH]c3ncc(-c4cccc5nn(C)cc45)cc23)c1F` [P-0015, Propane-1-sulfonic acid {2,4-difluoro-3-[5-(2-methyl-2H-indazol-4-yl)-1H-pyrrolo[2,3-b]pyridine-3-carbonyl]-phenyl}-amide]: the IC50 is < 1 µM in test [1] and > 10 µM on CYP3A4(BQ).
As for `CCCS(=O)(=O)Nc1ccc(F)c(C(=O)c2c[nH]c3ncc(-c4ccc5ncsc5c4)cc23)c1F` [P-0020, Propane-1-sulfonic acid [3-(5-benzothiazol-6-yl-1H-pyrrolo[2,3-b]pyridine-3-carbonyl)-2,4-difluoro-phenyl]-amide], at CYP3A4(BQ), the IC50 is > 10 µM.
`CCCS(=O)(=O)Nc1ccc(F)c(C(=O)c2c[nH]c3ncc(-c4ccc5[nH]cc(C)c5c4)cc23)c1F` [P-0023, Propane-1-sulfonic acid {2,4-difluoro-3-[5-(3-methyl-1H-indol-5-yl)-1H-pyrrolo[2,3-b]pyridine-3-carbonyl]-phenyl}-amide]: the half-inhibitory concentration (IC50) on CYP3A4(BQ) was > 10 µM.
As for `CCCS(=O)(=O)Nc1ccc(F)c(C(=O)c2c[nH]c3ncc(-c4ccc5cncnc5c4)cc23)c1F` [P-0025, Propane-1-sulfonic acid [2,4-difluoro-3-(5-quinazolin-7-yl-1H-pyrrolo[2,3-b]pyridine-3-carbonyl)-phenyl]-amide], the IC50 on CYP3A4(BQ) was > 10 µM.
Consider `CCCS(=O)(=O)Nc1ccc(F)c(C(=O)c2c[nH]c3ncc(-c4cnn(C5CCNCC5)c4)cc23)c1F` [P-1002, Propane-1-sulfonic acid {2,4-difluoro-3-[5-(1-piperidin-4-yl-1H-pyrazol-4-yl)-1H-pyrrolo[2,3-b]pyridine-3-carbonyl]-phenyl}-amide], for which, on CYP3A4(BQ), the IC50 is > 10 µM.
With `O=C(c1c(F)ccc(NS(=O)(=O)c2ccc(C(F)(F)F)cc2)c1F)c1c[nH]c2ncc(-c3cnn(C4CCNCC4)c3)cc12` [P-1004, N-{2,4-Difluoro-3-[5-(1-piperidin-4-yl-1H-pyrazol-4-yl)-1H-pyrrolo[2,3-b]pyridine-3-carbonyl]-phenyl}-4-trifluoromethyl-benzenesulfonamide], the IC50 on CYP3A4(BQ) was > 10 µM.
Take `CCCS(=O)(=O)Nc1ccc(F)c(C(=O)c2c[nH]c3ncc(-c4csc(-n5ccnc5C)n4)cc23)c1F` [P-1101, Propane-1-sulfonic acid (2,4-difluoro-3-{5-[2-(2-methyl-imidazol-1-yl)-thiazol-4-yl]-1H-pyrrolo[2,3-b]pyridine-3-carbonyl}-phenyl)-amide]: the IC50 in test [1] is < 1 µM.
In the case of `Cc1ccc(-c2cnc3[nH]cc(C(=O)c4c(F)ccc(NS(=O)(=O)c5cc(F)ccc5F)c4F)c3c2)cn1` [P-1408, N-{2,4-Difluoro-3-[5-(6-methyl-pyridin-3-yl)-1H-pyrrolo[2,3-b]pyridine-3-carbonyl]-phenyl}-2,5-difluoro-benzenesulfonamide], the IC50 at CYP3A4(BQ) is > 10 µM.
On the same count and under the same terms, as for `Cc1ncc(-c2cnc3[nH]cc(C(=O)c4c(F)ccc(NS(=O)(=O)c5cc(F)ccc5F)c4F)c3c2)cn1` [P-1503, N-{2,4-Difluoro-3-[5-(2-methyl-pyrimidin-5-yl)-1H-pyrrolo[2,3-b]pyridine-3-carbonyl]-phenyl}-2,5-difluoro-benzenesulfonamide], the figure is > 10 µM.

As usually defined, the IC50 is the midpoint of a concentration-inhibition curve.
